In the supplement of paper PMC10307832:

Assays:
Experiment in all cases: relative viability (nuclei count vs DMSO), 5 days (fraction); higher = more cells survive
Neratinib + Trametinib = compound: CCOc1cc2ncc(C#N)c(Nc3ccc(OCc4ccccn4)c(Cl)c3)c2cc1NC(=O)/C=C/CN(C)C [Neratinib] + CC(=O)Nc1cccc(-n2c(=O)n(C3CC3)c(=O)c3c(Nc4ccc(I)cc4F)n(C)c(=O)c(C)c32)c1 [Trametinib] (partner 0.02 µM)
How it was run: (§1)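 Lung cancer cell lines in 1536-well plates were dosed by pin tool the day after seeding, either with one drug alone or with a fixed anchor-drug dose plus five library-drug doses (not always all listed) in √10 steps. After 5 days, cells were fixed and their nuclei stained in one step (final 0.05% Triton X-100, 1% formaldehyde, 1 ug/ml Hoechst), then counted on 4× images. Relative viability is the nuclei count in treated wells divided by that in vehicle wells. Values are medians of duplicate plates.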

Neratinib + Navitoclax = compound: CCOc1cc2ncc(C#N)c(Nc3ccc(OCc4ccccn4)c(Cl)c3)c2cc1NC(=O)/C=C/CN(C)C [Neratinib] + CC1(C)CCC(c2ccc(Cl)cc2)=C(CN2CCN(c3ccc(C(=O)NS(=O)(=O)c4ccc(N[C@H](CCN5CCOCC5)CSc5ccccc5)c(S(=O)(=O)C(F)(F)F)c4)cc3)CC2)C1 [Navitoclax] (partner 0.5 µM)
How it was run: as §1

Neratinib + Phenformin = compound: CCOc1cc2ncc(C#N)c(Nc3ccc(OCc4ccccn4)c(Cl)c3)c2cc1NC(=O)/C=C/CN(C)C [Neratinib] + N=C(N)NC(=N)NCCc1ccccc1 [Phenformin] (partner 250 µM)
How it was run: as §1

Neratinib + Pemetrexed = compound: CCOc1cc2ncc(C#N)c(Nc3ccc(OCc4ccccn4)c(Cl)c3)c2cc1NC(=O)/C=C/CN(C)C [Neratinib] + Nc1nc2[nH]cc(CCc3ccc(C(=O)N[C@@H](CCC(=O)O)C(=O)O)cc3)c2c(=O)[nH]1 [Pemetrexed] (partner 0.2 µM)
How it was run: as §1

| Cell Line | relative viability (Neratinib + Trametinib; first compound 0.01 µM) | relative viability (Neratinib + Trametinib; first compound 0.03162 µM) | relative viability (Neratinib + Trametinib; first compound 0.1 µM) | relative viability (Neratinib + Trametinib; first compound 0.3162 µM) | relative viability (Neratinib + Trametinib; first compound 1 µM) | relative viability (Neratinib + Navitoclax; first compound 0.01 µM) | relative viability (Neratinib + Navitoclax; first compound 0.03162 µM) | relative viability (Neratinib + Navitoclax; first compound 0.1 µM) | relative viability (Neratinib + Navitoclax; first compound 0.3162 µM) | relative viability (Neratinib + Navitoclax; first compound 1 µM) | relative viability (Neratinib + Phenformin; first compound 0.01 µM) | relative viability (Neratinib + Phenformin; first compound 0.03162 µM) | relative viability (Neratinib + Phenformin; first compound 0.1 µM) | relative viability (Neratinib + Phenformin; first compound 0.3162 µM) | relative viability (Neratinib + Phenformin; first compound 1 µM) | relative viability (Neratinib + Pemetrexed; first compound 0.03162 µM) | relative viability (Neratinib + Pemetrexed; first compound 0.1 µM) | relative viability (Neratinib + Pemetrexed; first compound 0.3162 µM) | relative viability (Neratinib + Pemetrexed; first compound 1 µM) | relative viability (Neratinib + Pemetrexed; first compound 0.01 µM) |
| --- | --- | --- | --- | --- | --- | --- | --- | --- | --- | --- | --- | --- | --- | --- | --- | --- | --- | --- | --- | --- |
| SW 1573 | 0.554 | 0.57 | 0.497 | 0.593 | 0.276 | 1.32 | 1.15 | 0.862 | 0.87 | 0.804 | 0.431 | 0.466 | 0.384 | 0.311 | 0.185 | 0.878 | 0.651 | 0.799 | 0.475 | – |
| NCI-H2009 | 0.301 | 0.262 | 0.307 | 0.266 | 0.179 | 1.13 | 1.23 | 1.12 | 1.13 | 0.999 | 0.482 | 0.509 | 0.484 | 0.389 | 0.303 | – | 1.06 | 1.06 | 1.01 | 1.09 |
| NCI-H1915 | 0.32 | 0.314 | 0.294 | 0.299 | 0.23 | 0.764 | 0.862 | 0.757 | 0.736 | 0.744 | 0.383 | 0.384 | 0.228 | 0.354 | 0.39 | 0.495 | 0.44 | 0.412 | 0.516 | 0.495 |
| UMC-11 | 0.621 | 0.879 | 0.673 | 0.666 | 0.686 | 0.283 | 0.332 | 0.264 | 0.316 | 0.252 | 0.333 | 0.328 | 0.32 | 0.293 | 0.275 | 0.785 | 0.525 | 0.683 | 0.51 | 0.786 |
| LOU-NH91 | 0.795 | 0.746 | 0.698 | 0.67 | 0.597 | 0.682 | 0.582 | 0.517 | 0.374 | 0.279 | 0.664 | 0.634 | 0.525 | 0.426 | 0.412 | 0.439 | 0.426 | 0.43 | 0.424 | 0.383 |
| NCI-H2405 | 0.682 | 0.612 | – | 0.465 | 0.513 | 0.904 | 0.887 | 0.784 | 0.785 | 0.188 | 0.421 | 0.393 | 0.414 | 0.33 | 0.359 | 1.16 | 1.02 | 1.04 | – | 1.19 |
| NCI-H2228 | 0.457 | 0.93 | 0.359 | 0.58 | 0.132 | 0.929 | 1.57 | 0.802 | 0.953 | 0.258 | 0.334 | 0.331 | 0.268 | 0.236 | 0.122 | 0.362 | 0.306 | 0.271 | 0.147 | 0.382 |
| HCC-827 | 0.426 | 0.545 | 0.561 | 0.226 | 0.153 | 1.02 | 1.09 | 1 | 0.924 | 0.201 | 0.42 | 0.411 | 0.403 | 0.23 | 0.151 | 0.271 | 0.191 | 0.153 | 0.13 | 0.273 |
| NCI-H322M | 0.519 | 0.486 | 0.506 | 0.488 | 0.373 | 1.18 | 1.17 | 0.558 | 0.701 | 0.627 | 0.762 | 0.671 | 0.671 | 0.376 | 0.283 | 0.652 | 0.598 | 0.448 | 0.371 | 0.642 |
| HOP-62 | 0.408 | 0.4 | 0.337 | – | 0.405 | – | 1.07 | 1.1 | 0.996 | 1.1 | 0.716 | 0.702 | 0.621 | 0.585 | 0.617 | 0.31 | 0.206 | – | 0.241 | 0.323 |
| HCC-44 | 1.14 | 1.08 | 1.11 | 1.08 | 1.09 | 1.1 | 0.978 | 0.867 | 0.951 | 0.917 | 0.22 | 0.228 | 0.213 | 0.157 | 0.245 | 0.686 | 0.635 | 0.648 | 0.671 | 0.63 |
